Laboratory results: patent publication US20080187935A1, “Homo and Heterodimer Proteins of the Abcg Family, Methods For Detection and Screening Modulators Thereof” (priority 2004, published 2008)
Each block holds one compound with its values, some of them ahead of it.

Legend:
human ABCG1 = target: T1, human ABCG1 (Homo sapiens, UniProt P45844); assay: vanadate-sensitive ATPase activity of ABCG1 in isolated Sf9 membranes; format: biochemical; conditions: for effect on ABCG1 ATPase activity (in words): Sf9 membranes, 3.3 mM MgATP
T1 construct: made in house; host or cells: Sf9 insect cells (baculovirus), isolated membranes
Experimental: (§1) Recombinant baculoviruses carrying transporter cDNA were generated with BaculoGold Transfection Kit (Pharmingen), in accordance with the manufacturer's protocol. The titer of virus supernatants were determined in order to express the same amount of each proteins, Sf9 (Spodoptera frugiperda ovarian) cells (Invitrogen) were infected and cultured according to the procedures described previously (19). Briefly, about 3×10^7 cells were infected with 3 ml of virus supernatant in case of homodimer expression and 1.5-1.5 ml of virus supernatants in case of heterodimer expression. The virus-infected Sf9 cells were cultured in T150 culture flasks with 30 ml of medium for the times indicated. The cells were harvested by scraping them into Tris-mannitol buffer (50 mM Tris, pH 7.0, with HCl, containing 300 mM mannitol and 0.5 mM phenylmethylsulfonyl fluoride).
For membrane preparation the cells were lysed and homogenized using a glass-Teflon tissue homogenizer in TMEP (50 mM Tris, pH 7.0, with HCl, containing 50 mM mannitol, 2 mM EGTA-Tris, 10 µg/ml leupeptin, 8 µg/ml aprotinin, 0.5 mM phenylmethylsulfonyl fluoride, and 2 mM dithiothreitol), and the undisrupted cells and nuclear debris were removed by centrifugation at 500×g for 10 min. The supernatant fluid was then centrifuged for 60 min at 100,000×g and the pellet containing the membranes resuspended in TMEP at a protein concentration of 2-3 mg/ml. All procedures were carried out at 4° C., and the membranes were stored at −70° C.
(§2) The ATPase activity of the isolated Sf9 cell membranes was estimated by measuring inorganic phosphate liberation. Membrane suspensions (about 20 μg of membrane protein, as determined by a modified Lowry method) were incubated at 37° C. for 20-min in 0.15 ml of a medium containing 40 mM MOPS-Tris (pH 7.0), 0.5 mM EGTA-Tris (pH 7.0), 2 mM dithiothreitol, 50 mM KCl, 1 mM ouabain and 5 mM sodium azide, and the ATPase reaction was started by the addition of 3.3 mM MgATP. The indicated drugs (obtained from Sigma) were added in dimethyl sulfoxide. The final concentration of dimethyl sulfoxide in the assay medium was 1%. […] The reactions were stopped by the addition of 0.1 ml of 5% SDS solution and the amount of inorganic phosphate determined immediately. Inorganic phosphate was measured by colorimetric reaction (19). The points plotted in the figures indicate the means of triplicate determinations.

ABCG2R482G = target: T2, ABCG2R482G (Homo sapiens, UniProt Q9UNQ0, R482G); conditions: Özvegy C et al., 2001, cited from earlier work
T2 construct: host or cells: Sf9 membranes
T2 sequence (Q9UNQ0 1-655 R482G): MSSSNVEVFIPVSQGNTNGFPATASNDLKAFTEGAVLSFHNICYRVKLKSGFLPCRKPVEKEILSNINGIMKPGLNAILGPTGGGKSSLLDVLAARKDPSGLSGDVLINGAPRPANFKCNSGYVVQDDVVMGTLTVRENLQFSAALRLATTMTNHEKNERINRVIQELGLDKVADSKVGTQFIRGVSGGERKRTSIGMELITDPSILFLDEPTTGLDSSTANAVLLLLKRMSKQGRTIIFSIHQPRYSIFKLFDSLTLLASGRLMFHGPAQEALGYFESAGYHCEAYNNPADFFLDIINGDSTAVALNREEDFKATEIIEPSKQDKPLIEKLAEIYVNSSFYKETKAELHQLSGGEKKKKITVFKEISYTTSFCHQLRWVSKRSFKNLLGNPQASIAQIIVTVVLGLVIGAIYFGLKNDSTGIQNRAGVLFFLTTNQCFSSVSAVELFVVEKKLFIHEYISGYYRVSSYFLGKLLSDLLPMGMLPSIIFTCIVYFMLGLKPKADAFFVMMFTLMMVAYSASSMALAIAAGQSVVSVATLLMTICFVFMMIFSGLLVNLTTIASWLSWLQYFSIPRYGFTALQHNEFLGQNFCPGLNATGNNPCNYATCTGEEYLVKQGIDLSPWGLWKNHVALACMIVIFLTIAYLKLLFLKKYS

ABCG1K124M = target: T3, ABCG1K124M (Homo sapiens, UniProt P45844, K124M); assay: ATPase activity of catalytic site mutant ABCG1K124M in Sf9 membranes; format: biochemical; conditions: data not shown
T3 construct: made in house; host or cells: Sf9 insect cells (baculovirus), isolated membranes
Experimental: as §1, with “The cells were harvested by scraping them into Tris-mannitol buffer (50 mM Tris, pH 7.0, with HCl, containing 300 mM mannitol and 0.5 mM phenylmethylsulfonyl fluoride).” left out
as §2, with “MgATP.” for “MgATP. The indicated drugs (obtained from Sigma) were added in dimethyl sulfoxide. The final concentration of dimethyl sulfoxide in the assay medium was 1%.”, “The points plotted in the figures indicate the means of triplicate determinations.” left out

human ABCG4 = target: T4, human ABCG4 (Homo sapiens, UniProt Q9H172); assay: vanadate-sensitive ATPase activity of ABCG4 in isolated Sf9 membranes; format: biochemical
T4 construct: made in house; host or cells: Sf9 insect cells (baculovirus), isolated membranes; cDNA from I.M.A.G.E. clone 1537140
Experimental: Recombinant baculoviruses carrying transporter cDNA were generated with BaculoGold Transfection Kit (Pharmingen), in accordance with the manufacturer's protocol. The titer of virus supernatants were determined in order to express the same amount of each proteins, Sf9 (Spodoptera frugiperda ovarian) cells (Invitrogen) were infected and cultured according to the procedures described previously (19). Briefly, about 3×10^7 cells were infected with 3 ml of virus supernatant in case of homodimer expression and 1.5-1.5 ml of virus supernatants in case of heterodimer expression. The virus-infected Sf9 cells were cultured in T150 culture flasks with 30 ml of medium for the times indicated. […] The supernatant fluid was then centrifuged for 60 min at 100,000×g and the pellet containing the membranes resuspended in TMEP at a protein concentration of 2-3 mg/ml. All procedures were carried out at 4° C., and the membranes were stored at −70° C. The ATPase activity of the isolated Sf9 cell membranes was estimated by measuring inorganic phosphate liberation. […] The indicated drugs (obtained from Sigma) were added in dimethyl sulfoxide. The final concentration of dimethyl sulfoxide in the assay medium was 1%. […] The reactions were stopped by the addition of 0.1 ml of 5% SDS solution and the amount of inorganic phosphate determined immediately. Inorganic phosphate was measured by colorimetric reaction (19). […]

ABCG1/ABCG4 = target: T5, ABCG1/ABCG4 (Homo sapiens, UniProt P45844+Q9H172); assay: ATPase activity of co-expressed ABCG1/ABCG4 in Sf9 membranes; format: biochemical; conditions: various concentrations, data not shown
T5 construct: made in house; host or cells: Sf9 insect cells co-infected with both baculoviruses, isolated membranes
Experimental: as §1, with “The cells were harvested by scraping them into Tris-mannitol buffer (50 mM Tris, pH 7.0, with HCl, containing 300 mM mannitol and 0.5 mM phenylmethylsulfonyl fluoride).” left out
as §2, with “MgATP.” for “MgATP. The indicated drugs (obtained from Sigma) were added in dimethyl sulfoxide. The final concentration of dimethyl sulfoxide in the assay medium was 1%.”, “The points plotted in the figures indicate the means of triplicate determinations.” left out

T4 sequence (Q9H172 whole entry): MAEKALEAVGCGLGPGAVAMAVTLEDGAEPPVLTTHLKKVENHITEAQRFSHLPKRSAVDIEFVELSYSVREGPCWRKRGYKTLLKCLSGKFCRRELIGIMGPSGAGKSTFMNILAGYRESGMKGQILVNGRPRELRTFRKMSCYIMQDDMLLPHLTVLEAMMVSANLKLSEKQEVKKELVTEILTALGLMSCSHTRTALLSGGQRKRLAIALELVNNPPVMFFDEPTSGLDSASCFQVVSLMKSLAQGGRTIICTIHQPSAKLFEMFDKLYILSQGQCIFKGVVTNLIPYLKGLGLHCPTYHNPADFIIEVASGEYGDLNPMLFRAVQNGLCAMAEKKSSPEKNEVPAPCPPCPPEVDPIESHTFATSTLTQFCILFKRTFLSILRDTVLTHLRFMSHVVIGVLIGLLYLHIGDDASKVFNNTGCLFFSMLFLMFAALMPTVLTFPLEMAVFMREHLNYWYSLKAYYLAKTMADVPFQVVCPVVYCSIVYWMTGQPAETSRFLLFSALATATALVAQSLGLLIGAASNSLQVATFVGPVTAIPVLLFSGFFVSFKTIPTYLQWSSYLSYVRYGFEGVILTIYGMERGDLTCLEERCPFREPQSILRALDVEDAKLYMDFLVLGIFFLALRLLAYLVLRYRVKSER

effect on ABCG1 ATPase activity (in words) (human ABCG1): inhibited ABCG1
Compound: N[C@@H](Cc1cc(I)c(Oc2cc(I)c(O)c(I)c2)c(I)c1)C(=O)O [L-thyroxine]

Ki (human ABCG1; inhibition of ABCG1 ATPase activity): ~500 nM
Compound: NC(=NCc1ccccc1)NC(=O)c1nc(Cl)c(N)nc1N [Benzamil, benzamil]

Compound: Nc1ncnc2c1ncn2[C@@H]1O[C@H](COP(=O)(O)OP(=O)(O)OP(=O)(O)O)[C@@H](O)[C@H]1O [ATP]
Km (ABCG2R482G; read-out: Km for ATP): ~600 µM
Km (human ABCG1; with or without 100 μM rhodamine123, read-out: Km for ATP): ~500 µM

Compound: cyclosporin A
effect on ABCG1 ATPase activity (in words) (human ABCG1): inhibited ABCG1 ATPase activity at low concentrations

Compound: rhodamine123
effect on ABCG1K124M ATPase activity (in words) (ABCG1K124M): negligible
stimulation of ABCG2R482G mutant ATPase activity (ABCG2R482G): about 1.4 fold
increase of ATPase activity of ABCG1 (human ABCG1; 20 μM rhodamine123): increased almost two fold
rhodamine123 stimulated ATPase activity (human ABCG1; ABCG1 co-expressed with β-Gal, 100 μM rhodamine123, units = nanomoles Pi/mg membrane protein/min, basal 19.2±1.24, SEM, n=3): 33.6±0.65 units
effect on ABCG1 ATPase activity (in words) (human ABCG1): substantially stimulate
EC50 (human ABCG1; stimulation of ABCG1 ATPase activity, read-out: Kact): ~10 µM
effect on ABCG4 ATPase activity (in words) (human ABCG4): no effect

effect on ATPase activity of co-expressed ABCG1/ABCG4 (in words) (ABCG1/ABCG4): could not detect a change in activity
effect on ABCG1 ATPase activity (in words) (human ABCG1): could not detect a change in activity
effect on ABCG4 ATPase activity (in words) (human ABCG4): could not detect a change in activity
Compound: Nc1c(O)cccc1C(=O)C[C@H](N)C(=O)O [3-OH kynurenine, 3-OH-kynurenine]

Compound: COc1ccc2c3c([nH]c2c1)[C@H](CC(C)C)N1C(=O)[C@H](CCC(=O)OC(C)(C)C)NC(=O)[C@@H]1C3 [Ko143]
effect on ABCG1 ATPase activity (in words) (human ABCG1): no effect
